The results in this text go back to PubChem BioAssay (NCI).

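Each compound was tested at five concentrations against cells in 96-well plates for 48 hours. GI50: concentration for 50% inhibition of growth. The concentration for full growth arrest is given as TGI.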

Test systems include SNB-19 CNS; HOP-62 NSCLC; NCI-H460 lung; SW-620 colon; A549 NSCLC; SNB-75 CNS; OVCAR-8 ovarian; A498 renal; SN12C renal; K-562 leukemia.
What all share (experiment): NCI anticancer screen, dose series, 48 h

On to `O=C(c1ccccc1)c1c(CC(O)c2ccncc2)n(C(=O)c2ccccc2)c2ccccc12` (stereo not drawn), for which the TGI with SNB-19 CNS was found to be 73.1 µM; with HOP-62 NSCLC, 31.6 µM; in the assay with NCI-H460 lung, 49.9 µM; with SW-620 colon, 39.2 µM; in the assay on A549 NSCLC, 52.8 µM; in the assay on SNB-75 CNS, 41.4 µM. Also, the TGI with OVCAR-8 ovarian is above 100 µM.
For the compound `C[CH2][Hg][S]c1ccccc1C(=O)O`, the GI50 in the assay with A498 renal is 1.64 µM; in the assay on SNB-19 CNS it was 2.98 µM; with HOP-62 NSCLC, 2.58 µM; with NCI-H460 lung, 2.64 µM; in the assay on SW-620 colon, 0.838 µM; in the assay with SN12C renal, 1.31 µM. Further, the GI50 with A549 NSCLC was 1.78 µM; in the assay on SNB-75 CNS, 2.98 µM. The TGI is 4.04 µM in the assay on A498 renal; 12.3 µM in the assay with SNB-19 CNS; 12.3 µM in the assay on HOP-62 NSCLC; 8.98 µM in the assay on NCI-H460 lung; 2.24 µM in the assay on SW-620 colon; 2.61 µM in the assay on SN12C renal. The TGI in the assay with A549 NSCLC was determined as 3.94 µM; in the assay on SNB-75 CNS, 10.8 µM.
As for `O=c1c2cc(F)ccc2sc2c(NCCCNCCO)nc3ccccc3c12`, the GI50 in the assay on A498 renal was 1.67 µM; with SNB-19 CNS it was 1.66 µM; in the assay with HOP-62 NSCLC it was 1.77 µM; with NCI-H460 lung, 1.64 µM; in the assay with SW-620 colon, 1.62 µM; in the assay with SN12C renal, 1.67 µM. The figures for the GI50 with A549 NSCLC and with SNB-75 CNS were 1.79 µM and 1.5 µM, respectively. Moreover, the TGI with A498 renal amounted to 3.32 µM; in the assay on SNB-19 CNS, 3.14 µM; in the assay on HOP-62 NSCLC, 3.69 µM; in the assay with NCI-H460 lung, 3.19 µM; in the assay with SW-620 colon, 3.14 µM; with SN12C renal, 3.17 µM. Further, the values for the TGI in the assay with A549 NSCLC and in the assay with SNB-75 CNS were 3.78 µM and 2.96 µM, respectively.
For `CC(C)(C)c1cc2nc(c1)C(C(F)(F)F)(C(F)(F)F)OB(Br)OC2(C(F)(F)F)C(F)(F)F`, the TGI worked out at 14.9 µM in the assay with SNB-19 CNS; 3.14 µM in the assay on HOP-62 NSCLC; 15.8 µM with SW-620 colon; 7.26 µM in the assay with SN12C renal; 6.77 µM in the assay with A549 NSCLC; 13 µM in the assay on SNB-75 CNS. Also, the TGI with K-562 leukemia was found to be 10 µM; in the assay with OVCAR-8 ovarian, 0.427 µM.
Regarding `CC1=C(CC2C(=O)N(c3ccccc3)S(=O)(=O)NC2C)C(=O)N(c2ccccc2)S(=O)(=O)N1C` (stereo not drawn), the TGI in the assay with SNB-19 CNS, with HOP-62 NSCLC, in the assay on NCI-H460 lung, with SW-620 colon, in the assay with SN12C renal and in the assay on A549 NSCLC was above 100 µM each time. Further, the TGI in the assay on SNB-75 CNS, in the assay on K-562 leukemia and in the assay on OVCAR-8 ovarian was above 100 µM each time.
`Cc1cccc(NC(=O)/C(=N\N)C(c2cnc3ccc([N+](=O)[O-])cc3n2)[N+](=O)[O-])c1C` (stereo not drawn): the TGI in the assay on SNB-19 CNS, in the assay on HOP-62 NSCLC, in the assay with NCI-H460 lung, in the assay with SW-620 colon, in the assay on SN12C renal and in the assay with A549 NSCLC was above 100 µM in each case. The TGI with SNB-75 CNS and with OVCAR-8 ovarian was above 100 µM throughout.
As to `C=C1[C@@H](O)O[C@H]2[C@H]1C[C@H](OC(C)=O)[C@]13C(=O)O[C@H]4C[C@](C)(O)[C@H]([C@H]41)C31C=C(C)[C@]2(O)O1`, the GI50 in the assay with SNB-19 CNS is above 100 µM; with NCI-H460 lung it was 32.5 µM; in the assay on SW-620 colon, 29.8 µM; in the assay on SN12C renal, 26.6 µM; in the assay on A549 NSCLC, above 100 µM; in the assay with K-562 leukemia it was 53.8 µM. Moreover, in the assay with OVCAR-8 ovarian, the GI50 is 22.7 µM. In addition, the TGI was above 100 µM with SNB-19 CNS; 96.9 µM in the assay with NCI-H460 lung; above 100 µM in the assay with SW-620 colon; 95.2 µM in the assay on SN12C renal; above 100 µM in the assay with A549 NSCLC; above 100 µM with K-562 leukemia. This compound showed a TGI with OVCAR-8 ovarian of 58.8 µM.
For `COc1ccc(NC(=O)C(=O)/C=C(\O)c2ccccc2)cc1`, the TGI with HOP-62 NSCLC, with SW-620 colon, with SN12C renal, with A549 NSCLC, in the assay with SNB-75 CNS and in the assay with K-562 leukemia was above 10 µM in each case. The same compound came in with a TGI in the assay with OVCAR-8 ovarian above 10 µM.
For `CC(CO)(Nc1ccc([N+](=O)[O-])cc1[N+](=O)[O-])C(=O)O` (stereo not drawn), the TGI in the assay on SNB-19 CNS was above 100 µM; with HOP-62 NSCLC, above 100 µM; with NCI-H460 lung it was 28.8 µM; with SW-620 colon, 33.4 µM; in the assay with SN12C renal, 39.4 µM; with A549 NSCLC, above 100 µM. Besides, the TGI in the assay with K-562 leukemia was 38.6 µM; with OVCAR-8 ovarian, above 100 µM.
Consider `COc1cc(-c2nn(-c3cccc(NC(=O)CCN4CCN(Cc5ccccc5)CC4)c3)cc2-c2ccncc2)ccc1Cl`, for which the GI50 is 1.41 µM with A498 renal; 4.42 µM in the assay on SNB-19 CNS; 1.38 µM in the assay on HOP-62 NSCLC; 0.38 µM in the assay with NCI-H460 lung; 0.49 µM in the assay with SW-620 colon; 2.13 µM in the assay on SN12C renal. Also, the values for the GI50 in the assay on A549 NSCLC, in the assay with SNB-75 CNS and with OVCAR-8 ovarian were 1.72 µM, 1.55 µM and 2.68 µM, respectively. Further, the TGI in the assay with A498 renal was 6.71 µM; in the assay on SNB-19 CNS, 41.2 µM; in the assay on HOP-62 NSCLC, 12.4 µM; in the assay on NCI-H460 lung, 1.46 µM; with SW-620 colon, 1.93 µM; with SN12C renal, 20.3 µM. Further, the TGI was 11.6 µM in the assay with A549 NSCLC, 8.73 µM with SNB-75 CNS and 11.1 µM with OVCAR-8 ovarian.
With `ClC1=C(Cl)C(Cl)(Cl)c2c3c(c4c(c21)C(Cl)(Cl)C(Cl)=C4Cl)C(Cl)(Cl)C(Cl)=C3Cl`, the TGI in the assay on SNB-19 CNS, with HOP-62 NSCLC, in the assay on NCI-H460 lung, with SW-620 colon, with SN12C renal and in the assay with A549 NSCLC was above 100 µM each time. Also, the TGI in the assay with K-562 leukemia and in the assay with OVCAR-8 ovarian was above 100 µM each time.
On to `C/C(=N\O)c1cccc(Nc2cc(-n3ccnc3)c3ccccc3n2)c1`, for which the GI50 was 21.6 µM in the assay on A498 renal; 17.5 µM in the assay on SNB-19 CNS; 16.6 µM in the assay on HOP-62 NSCLC; above 100 µM in the assay with NCI-H460 lung; 19.6 µM in the assay on SW-620 colon; 16.2 µM with SN12C renal. The GI50 in the assay on SNB-75 CNS is 11.4 µM; in the assay with K-562 leukemia, 18.9 µM. Further, the TGI is 39.1 µM in the assay with A498 renal; 43.6 µM in the assay with SNB-19 CNS; 31.3 µM with HOP-62 NSCLC; above 100 µM in the assay on NCI-H460 lung; 42.1 µM in the assay on SW-620 colon; 38.2 µM with SN12C renal. The TGI with SNB-75 CNS was found to be 26.8 µM; with K-562 leukemia, 73.1 µM.
For `Cc1ccc(C2C3Cc4ccccc4C3=NN2c2ccc(S(=O)(=O)/N=c3\scc(-c4ccccc4)n3-c3ccccc3)cc2)cc1` (stereo not drawn), the GI50 in the assay with A498 renal is 14.9 µM; in the assay with SNB-19 CNS it was 64.8 µM; with HOP-62 NSCLC it was 40.2 µM; in the assay with NCI-H460 lung, 18.1 µM; in the assay with SW-620 colon, 15.7 µM; in the assay with SN12C renal, 16.8 µM. Also, the GI50 in the assay on A549 NSCLC is 19 µM; in the assay with K-562 leukemia, 14.9 µM; in the assay on OVCAR-8 ovarian it was 21.9 µM. Also, the TGI was 36.1 µM in the assay on A498 renal; above 100 µM in the assay on SNB-19 CNS; above 100 µM in the assay on HOP-62 NSCLC; 45.1 µM with NCI-H460 lung; 31.6 µM in the assay on SW-620 colon; 31.8 µM in the assay with SN12C renal. In addition, the TGI with A549 NSCLC was determined as 60.1 µM; in the assay on K-562 leukemia, 32.6 µM; in the assay with OVCAR-8 ovarian, 58.5 µM.
For `CC1=C(C(=O)Nc2ccc(Cl)c(Cl)c2)C(c2ccc([N+](=O)[O-])cc2)C(C(=O)Nc2ccc(Cl)c(Cl)c2)=C(C)N1`, the TGI with A498 renal is 14.8 µM; in the assay with SNB-19 CNS it was above 71.3 µM; with HOP-62 NSCLC, 8.7 µM; in the assay with NCI-H460 lung, 6.15 µM; in the assay with SW-620 colon it was 12.4 µM; in the assay with SN12C renal, 7.3 µM. Moreover, the TGI worked out at 15.1 µM in the assay with A549 NSCLC, 20.5 µM with SNB-75 CNS and 8.58 µM in the assay on OVCAR-8 ovarian.
With `C1CSCCSCCCSCCSCCCSCCSCCCSCCSC1`, the TGI with A498 renal, in the assay on SNB-19 CNS, with HOP-62 NSCLC, in the assay on NCI-H460 lung, with SW-620 colon and in the assay with SN12C renal was above 100 µM each time. For the same compound, the TGI in the assay on A549 NSCLC, with K-562 leukemia and in the assay on OVCAR-8 ovarian was above 100 µM in each case.
For the compound `NNc1nnc(-c2nnc(NN)o2)o1`, the TGI in the assay on A498 renal, in the assay with SNB-19 CNS, in the assay on HOP-62 NSCLC, in the assay with NCI-H460 lung, with SW-620 colon and in the assay on SN12C renal was above 10 µM throughout. The TGI in the assay with A549 NSCLC, in the assay on K-562 leukemia and with OVCAR-8 ovarian was above 10 µM in each case.
On to `COc1cc2ncc3c(nc4sccn43)c2cc1OC`, for which the GI50 was 8.01 µM in the assay with A498 renal; 47.2 µM in the assay on SNB-19 CNS; 18.7 µM with HOP-62 NSCLC; 13.6 µM in the assay with NCI-H460 lung; 41.9 µM in the assay with SW-620 colon; 22.5 µM with SN12C renal. Also, the results for the GI50 in the assay with A549 NSCLC, in the assay with K-562 leukemia and in the assay with OVCAR-8 ovarian were 28.7 µM, 31.6 µM and 38.1 µM, respectively. Also, the TGI with A498 renal was above 100 µM; in the assay with SNB-19 CNS, above 100 µM; in the assay on HOP-62 NSCLC, 51.4 µM; with NCI-H460 lung, above 100 µM; in the assay with SW-620 colon, above 100 µM; in the assay on SN12C renal, 89.3 µM. Moreover, the TGI in the assay with A549 NSCLC, in the assay on K-562 leukemia and with OVCAR-8 ovarian was above 100 µM in each case.
